Data on 15 compounds can be found in patent US20230219251A1, “MULTIFUNCTIONAL WOOD PRESERVATIVE COMPOSITION AND WOOD PRESERVATION TREATMENT METHOD USING THE SAME” (KOREA INSTITUTE OF SCIENCE AND TECHNOLOGY, priority 2022, published 2023).

Where only a bound is given, the exact number is not on record here.

The conditions of data set [1]: cited from earlier work.
Another data set concerns Coptotermes formosanus. To be noted: cited from earlier work.
In another data set the test system is Reticulitermes speratus. To be noted: cited from earlier work.
A further data set relates to rot fungi. To be noted: cited from earlier work.
The test system of the next data set is wood-boring insects. Particulars: cited from earlier work.
For data set [2] the following is noted: 30 wt % BAE; one day after completion of the reaction. How it is done:
Hydrazine borates (#1 to #6) were synthesized by varying the amounts of boric acid (BA) and hydrazine hydrate (HH) while fixing the boric acid equivalent (BAE) level to 30 wt %.
(§1) Specifically, 150 g of BA was added, and HH was added at ratios shown in Table 1 after addition of water (distilled water), followed by reaction at a temperature of each reaction solution of 60° C. The termination time point of the reaction was when the solution became a transparent solution. The degree of precipitation was analyzed one day after the completion of the reaction.

Data set [3] can be described thus: pH of the prepared solutions. Format: physicochemical. How it is done: as §1
Hydrazine borates (#7 to #11) with different BAE levels were synthesized by varying the amounts of BA and HH. Specifically, BA was added at proportions shown in Table 3 below, and water was added and HH was added, followed by reaction at a temperature of each reaction solution of 60° C. Then, the termination time point of the reaction was when the solution became a transparent solution. The degree of precipitation was analyzed one month after the completion of the reaction.

Data set [4] is described as follows: Test on dilution stability.
Description: The precipitation or lack thereof over time was visually observed while the tube was shaken every 6 hours, and the results are shown in Table 14.
The mark [5] stands for this setting: reaction solutions of Example 1, 30 wt % BAE.
[6] abbreviates: reaction solutions of Example 2, 40-71 wt % BAE.

In the case of `N.O=BOB1OB2OB(O)OB(O1)O2` [ammonium pentaborate (APB), ammonium pentaborate], the “BAE at room temperature” value in data set [1] is on record as 10.6 % BAE.
Regarding `O.O.O.O.O=BOB1OB(OB=O)OB2OB([O-])OB([O-])OB(O1)O2.[Na+].[Na+]` [disodium octaborate tetrahydrate (DOT), disodium octaborate tetrahydrate], the “BAE at room temperature” value in data set [1] is listed as 11.6 % BAE.
Consider borate, for which the Toxicity titer was 3.0 kg/m^3 BAE with Coptotermes formosanus, below 3.0 kg/m^3 BAE in the data set with Reticulitermes speratus, 1.0-1.5 kg/m^3 BAE with rot fungi and 1.2 kg/m^3 BAE in the data set with wood-boring insects.
For the compound “dilithium octaborate [dilithium octaborate (LOB)]”, the “BAE at room temperature” value in data set [1] is on record as 24.1 % BAE.
Take hydrazine borate [#1]: in data set [2], the “Appearance of the solution / precipitate formation” value is reported as “transparent solutions”. For the same compound, the pH in data set [3] (setting [5]) is listed as 9.50.
The matching figures for hydrazine borate [#2]: “transparent solutions” and 8.42.
Compound hydrazine borate [#3] yielded a pH in data set [3] (setting [5]) of 7.45.
With hydrazine borate [#4], the pH in data set [3] (setting [5]) came to 6.13.
In turn, hydrazine borate [#5] showed a pH in data set [3] (setting [5]) of 6.33.
The compound hydrazine borate [#6] gave a pH in data set [3] (setting [5]) of 6.59.
For hydrazine borate [#7], the pH in data set [3] (setting [6]) is listed as 8.45.
Take hydrazine borate [#8]: in data set [3] (setting [6]), the pH was 8.42. Further, the Precipitation over time entry in data set [4] (diluted 1:1 in distilled water, 1 Days) is given as “N”; in data set [4] (diluted 1:1 in distilled water, 3 Days), “N”; in data set [4] (diluted 1:1 in distilled water, 5 Days), “N”; in data set [4] (diluted 1:1 in distilled water, 7 Days), “N”; in data set [4] (diluted 2:1 in distilled water, 1 Days), “N”; in data set [4] (diluted 2:1 in distilled water, 3 Days), “N”. Moreover, the Precipitation over time result in data set [4] (diluted 2:1 in distilled water, 5 Days) is “N”; in data set [4] (diluted 2:1 in distilled water, 7 Days), “N”; in data set [4] (diluted 3:1 in distilled water, 1 Days), “N”; in data set [4] (diluted 3:1 in distilled water, 3 Days) it was “N”; in data set [4] (diluted 3:1 in distilled water, 5 Days), “N”; in data set [4] (diluted 3:1 in distilled water, 7 Days), “N”.
In turn, hydrazine borate [#9] came in with a pH in data set [3] (setting [6]) of 8.41.
In data set [3] (setting [6]), hydrazine borate [#10] had a pH of 8.40.
Still for that read-out and setting: the value for hydrazine borate [#11] was 8.37.
